The numbers were not newly measured in US12303531B2, “Molecular complex assembly particles comprising bis-R1,R2-dithiocarbamate-metal complex and a ligand, method of preparation and use thereof” (priority 2018, dated 2025), which cites them from elsewhere.

On to `CCN(CC)C(=S)[S-].CCN(CC)C(=S)[S-].[Cu+2]` [bis(diethyldithiocarbamate)copper(II)], for which the “solubility constant in water” value was “in the range of nanograms per litre”.
